Experimental data published in US20040162263A1, “Pharmaceutical formulations targeting specific regions of the gastrointesinal tract” (priority 2002, published 2004).
Several values for one entry are separate records, joined by “and”; a condition that tells them apart may be missing. Equal values may be shown once. Read-outs that look alike come from different tables or passages of the source.

Test: Pharmacokinetics of decitabine in IVAP rabbit model
Format: in vivo, rabbits
Details: for MRT: read-out: Mean Residence Time; for Vd: read-out: Volume (Vz); for CMAX: read-out: Mean Cmax
Protocol: Decitabine was administered intravenously to IVAP rabbits (n=3) at three doses: 0.75, 1.5 and 2.5 mg/kg. It was also administered at 2.5mg/kg orally and through previously implanted intestinal and vascular access ports in the portal vein (PV), upper small intestine (USI), lower small intestine (LSI) and colon (IC). All routes received the same simple formulation of raw compound dissolved in cold saline. Care was taken to insure doses were delivered immediately (less than 15 minutes) after dissolving the powder and that the liquid formulation was kept on ice up to the time of administration. Blood samples were taken simultaneously from the median auricular artery and through a port in the portal vein at predetermined time points. Plasma was separated and kept frozen at −70° C. until shipped to Xenobiotic Laboratories for analysis.
Pharmacokinetic parameters were calculated using non-compartmental models with the Winnonlin v3.1 program.

[1] = rabbit, plasma, 2.5 mg/kg, 2.5 mg/kg IC
[2] = rabbit, plasma, 2.5 mg/kg, 2.5 mg/kg LSI
[3] = rabbit, plasma, 2.5 mg/kg, 2.5 mg/kg USI
[4] = rabbit, plasma, 2.5 mg/kg, LSI 2.5 mg/kg
[5] = rabbit, plasma, 2.5 mg/kg, USI 2.5 mg/kg
[6] = rabbit, plasma, Overall mean of all doses and routes
[7] = rabbit, plasma, iv, 0.75 mg/kg, 0.75 mg/kg IV
[8] = rabbit, plasma, iv, 1.5 mg/kg, 1.5 mg/kg IV
[9] = rabbit, plasma, iv, 2.5 mg/kg, 2.5 mg/kg IV
[10] = rabbit, plasma, other: portal vein (PV) via implanted access port, 2.5 mg/kg, 2.5 mg/kg PV
[11] = rabbit, plasma, po, 2.5 mg/kg, 2.5 mg/kg Oral
[12] = rabbit, plasma, po, 2.5 mg/kg, Oral 2.5 mg/kg

Compound: Nc1ncn([C@H]2C[C@H](O)[C@@H](CO)O2)c(=O)n1 [decitabine, 5-aza-2′-deoxycytidine]
- concentration SYS, individual (IV 1.5 mg/kg, 240 min, 1.5 mg/kg): 10.2 ng/mL
- IV AUC0-inf, individual (IV 1.5 mg/kg, 1.5 mg/kg): 552.87 ng·h/mL and 612.34 ng·h/mL
- IV AUC0-inf, individual (IV 2.5 mg/kg, 2.5 mg/kg): 896.21 ng·h/mL and 1128.11 ng·h/mL
- Individual systemic Bioavailability (LSI 2.5 mg/kg): 44.48% and 51.78%
- Volume (Vz) (Oral): 2.29 L/kg
- clearance (Oral): 37.7 mL/min/kg
- Individual systemic Bioavailability (PO 2.5 mg/kg, 2.5 mg/kg): 28.57% and 38.84%
- systemic Bioavailability, Mean (PO 2.5 mg/kg, 2.5 mg/kg): 35.51%
- Individual systemic Bioavailability (PV 2.5 mg/kg): 79.63% and 58.11% and 66.02%
- systemic Bioavailability, Mean (PV 2.5 mg/kg): 67.92%
- Individual systemic Bioavailability (USI 2.5 mg/kg): 84.33% and 72.64%
- systemic Bioavailability, Mean (USI 2.5 mg/kg): 73.94%
- bioavailability (rabbit, plasma (systemic), 2.5 mg/kg, IC 2.5 mg/kg, read-out: systemic Bioavailability, Mean): 34.3%
- bioavailability (rabbit, plasma (systemic), 2.5 mg/kg, LSI 2.5 mg/kg, read-out: Individual systemic Bioavailability): 55%
- bioavailability (rabbit, plasma (systemic), 2.5 mg/kg, LSI 2.5 mg/kg, read-out: systemic Bioavailability, Mean): 50.4%
- bioavailability (rabbit, plasma (systemic), 2.5 mg/kg, USI 2.5 mg/kg, read-out: Individual systemic Bioavailability): 64.8%
- bioavailability (rabbit, plasma (systemic), po, 2.5 mg/kg, PO 2.5 mg/kg, read-out: Individual systemic Bioavailability): 39.1%
- AUC(0-inf) (rabbit, plasma (systemic, median auricular artery), 2.5 mg/kg, USI 2.5 mg/kg, read-out: Mean AUC0-inf in Systemic Samples): 837 ng·h/mL
- AUC(0-inf) (rabbit, plasma (systemic, median auricular artery), po, 2.5 mg/kg, Oral 2.5 mg/kg, read-out: Mean AUC0-inf in Systemic Samples): 402 ng·h/mL
- half-life [1]: 40.8 ± 0.6 min
- MRT [1]: 64.2 ± 1.2 min
- half-life [2]: 44.4 ± 3.6 min
- MRT [2]: 55.2 ± 5.4 min
- half-life [3]: 47.4 ± 5.4 min
- MRT [3]: 55.2 ± 4.8 min
- TMAX (rabbit, plasma, 2.5 mg/kg, IC 2.5 mg/kg): 15 min
- clearance (rabbit, plasma, 2.5 mg/kg, IC, read-out: Clearance (converted)): 36.8 mL/min/kg
- Vd (rabbit, plasma, 2.5 mg/kg, IC): 2.16 L/kg
- TMAX [4]: 8.4 ± 5.76 min
- CMAX [4]: 736 ± 95.6 ng/mL
- clearance (rabbit, plasma, 2.5 mg/kg, LSI, read-out: Clearance (converted)): 37.2 mL/min/kg
- Vd (rabbit, plasma, 2.5 mg/kg, LSI): 2.37 L/kg
- bioavailability (rabbit, plasma, 2.5 mg/kg, PV 2.5 mg/kg, read-out: systemic Bioavailability, Mean): 67.9%
- TMAX [5]: 4.98 min
- CMAX [5]: 1220 ± 280 ng/mL
- bioavailability (rabbit, plasma, 2.5 mg/kg, USI 2.5 mg/kg, read-out: systemic Bioavailability, Mean): 73.9%
- clearance (rabbit, plasma, 2.5 mg/kg, USI, read-out: Clearance (converted)): 37.2 mL/min/kg
- Vd (rabbit, plasma, 2.5 mg/kg, USI): 2.51 L/kg
- half-life [6]: 43.2 ± 4.2 min
- MRT [6]: 55.8 ± 6.6 min
- half-life [7]: 43.8 ± 1.8 min
- MRT [7]: 50.4 ± 1.8 min
- AUC(0-inf) (rabbit, plasma, iv, 0.75 mg/kg, IV 0.75 mg/kg, read-out: IV AUC0-inf, Mean): 340 ng·h/mL
- AUC(0-inf) (rabbit, plasma, iv, 0.75 mg/kg, IV 0.75 mg/kg, read-out: IV AUC0-inf, individual): 323 ng·h/mL
- half-life [8]: 45 ± 2.4 min
- MRT [8]: 49.8 ± 1.8 min
- AUC(0-inf) (rabbit, plasma, iv, 1.5 mg/kg, IV 1.5 mg/kg, read-out: IV AUC0-inf, Mean): 574 ng·h/mL
- AUC(0-inf) (rabbit, plasma, iv, 1.5 mg/kg, IV 1.5 mg/kg, read-out: IV AUC0-inf, individual): 557 ng·h/mL
- half-life [9]: 35.4 ± 1.2 min
- MRT [9]: 49.8 ± 9 min
- AUC(0-inf) (rabbit, plasma, iv, 2.5 mg/kg, IV 2.5 mg/kg, read-out: IV AUC0-inf, Mean): 1060 ng·h/mL
- AUC(0-inf) (rabbit, plasma, iv, 2.5 mg/kg, IV 2.5 mg/kg, read-out: IV AUC0-inf, individual): 1170 ng·h/mL
- clearance (rabbit, plasma, iv, IV (overall), read-out: Clearance (converted)): 40 mL/min/kg
- Vd (rabbit, plasma, iv, IV (overall)): 2.41 ± 0.41 L/kg
- bioavailability (rabbit, plasma, other: portal vein (PV) port, 2.5 mg/kg, PV 2.5 mg/kg, read-out: systemic Bioavailability, Mean): 68%
- half-life [10]: 46.2 ± 4.2 min
- MRT [10]: 48 ± 3.6 min
- clearance (rabbit, plasma, other: portal vein (PV) via implanted access port, 2.5 mg/kg, PV, read-out: Clearance (converted)): 55.2 mL/min/kg
- Vd (rabbit, plasma, other: portal vein (PV) via implanted access port, 2.5 mg/kg, PV): 3.63 L/kg
- bioavailability (rabbit, plasma, other: upper small intestine (USI) port, 2.5 mg/kg, USI 2.5 mg/kg, read-out: systemic Bioavailability, Mean): 74%
- half-life [11]: 41.4 ± 15.6 min
- MRT [11]: 72.6 ± 24 min
- TMAX [12]: 25.2 ± 8.4 min
- CMAX [12]: 335 ± 134 ng/mL
- bioavailability (rabbit, plasma, po, 2.5 mg/kg, PO 2.5 mg/kg, read-out: systemic Bioavailability, Mean): 35.5%
- AUC(0-inf) (rabbit, portal vein plasma, 2.5 mg/kg, LSI 2.5 mg/kg, read-out: Mean AUC0-inf in Portal Vein): 586 ng·h/mL
- AUC(0-inf) (rabbit, portal vein plasma, 2.5 mg/kg, USI 2.5 mg/kg, read-out: Mean AUC0-inf in Portal Vein): 833 ng·h/mL
- AUC(0-inf) (rabbit, portal vein plasma, po, 2.5 mg/kg, Oral 2.5 mg/kg, read-out: Mean AUC0-inf in Portal Vein): 397 ng·h/mL
- AUC(0-inf) (rabbit, systemic plasma (median auricular artery), 2.5 mg/kg, LSI 2.5 mg/kg, read-out: Mean AUC0-inf in Systemic Samples): 571 ng·h/mL
